Experimental data: patent US20160369115A1, “POLARIZING PLATE COMPOSITION, POLARIZING PLATE PROTECTIVE FILM, POLARIZER, POLARIZING PLATE, LIQUID CRYSTAL DISPLAY DEVICE, AND COMPOUND USED IN THE LIQUID CRYSTAL DISPLAY DEVICE” (FUJIFILM Corporation, priority 2014, published 2016)

Assay: Solubility of additive in water
Type: physicochemical
Details: amount of the additive dissolving in 100 ml of pure water at 25° C.
Protocol: The amount of the additive dissolving in 100 ml of pure water at 25° C. was measured and evaluated according to the following criteria.

SMILES	Solubility in water
[Cl-].[Cl-].[Zn+2] [ZnCl2, reference compound]	A (Equal to or greater than 5 g)
CC(C)[Si](Oc1c(Cc2ccccc2)c(=O)n(CS(=O)(=O)[O-])c(=O)n1C)(C(C)C)C(C)C.[Na+] [Example compound L]	A (Equal to or greater than 5 g)
CCOC(=O)Oc1c(Cc2ccccc2S(=O)(=O)[O-])c(=O)n(-c2ccccc2)c(=O)n1-c1ccccc1.[Na+] [Example compound D]	A (Equal to or greater than 5 g)
COC(=O)Oc1c(Cc2ccc(S(=O)(=O)[O-])cc2S(=O)(=O)[O-])c(=O)n(-c2ccccc2)c(=O)n1Cc1ccccc1.[Na+].[Na+] [Example compound B]	A (Equal to or greater than 5 g)
COC(=O)Oc1[nH]c(=O)n(Cc2ccc(B(O)O)cc2)c(=O)c1Cc1ccc(S(=O)(=O)[O-])cc1S(=O)(=O)[O-].[Na+].[Na+] [Example compound AAL]	A (Equal to or greater than 5 g)
COC(=O)Oc1[nH]c(=O)n(CCCS(=O)(=O)[O-])c(=O)c1Cc1ccc(C=O)cc1.[Na+] [Example compound AAC]	A (Equal to or greater than 5 g)
O=C1NC(=O)N(Cc2ccccc2)C(=O)C1c1ccccc1 (stereo not drawn) [Organic acid 1, reference compound]	C (Less than 1 g.)
O=C([O-])c1ccc(Cc2c(OCOCc3ccccc3)n(-c3ccccc3)c(=O)n(-c3ccccc3)c2=O)cc1.[Na+] [Example compound O]	B (Equal to or greater than 1 g and less than 5 g)
COC(=O)Cc1c(Cc2ccc(S(=O)(=O)[O-])cc2S(=O)(=O)[O-])c(=O)[nH]c2ccccc12.[Na+].[Na+] [Example compound AJ]	A (Equal to or greater than 5 g)
O=C(Oc1c(Cc2ccccc2S(=O)(=O)[O-])c(=O)n(-c2ccccc2)c(=O)n1-c1ccccc1)OC1c2ccccc2-c2ccccc21.[Na+] [Example compound H]	B (Equal to or greater than 1 g and less than 5 g)
COC(=O)Oc1[nH]c(=O)n(Cc2ccc(S(=O)(=O)[O-])cc2)c(=O)c1C=O.[Na+] [Example compound AAV]	A (Equal to or greater than 5 g)
COC(=O)Oc1[nH]c(=O)n(Cc2ccc(F)c(F)c2)c(=O)c1Cc1ccc(S(=O)(=O)[O-])cc1S(=O)(=O)[O-].[Na+].[Na+] [Example compound AAS]	A (Equal to or greater than 5 g)
CCO[Si](CCCNC(=O)OCCn1c(=O)[nH]c(OC(=O)OC)c(Cc2ccc(S(=O)(=O)[O-])cc2S(=O)(=O)[O-])c1=O)(OCC)OCC.[Na+].[Na+] [Example compound AAP]	A (Equal to or greater than 5 g)
Nc1c(F)c(F)c(C(=O)O)c(F)c1F [Organic acid 2, reference compound]	B (Equal to or greater than 1 g and less than 5 g)
COC(=O)Oc1c(Cc2ccccc2)c(=O)n(CS(=O)(=O)[O-])n1C.[Na+] [Example compound AH]	A (Equal to or greater than 5 g)
